The test system of assay [1] is HCV replicon RNA replication in Huh-7 luc/neo (Huh-Luc) cells. Nature of the assay: HCV replicon assay (stable replicon cell reporter assay, luciferase read-out). The assay is classed as cell-based, HCV type 1b. As for the experimental part:
(§1) The compounds of formula (I) were tested for anti-HCV activity in an assay determining their activity against NS5b polymerase and in an HCV replicon assay
The compounds of the present invention were examined for activity in the inhibition of HCV RNA replication in a cellular assay. […] The cellular assay was based on a bicistronic expression construct, as described by Lohmann et al. (1999) Science vol. 285 pp. 110-113 with modifications described by Krieger et al. (2001) Journal of Virology 75: 4614-4624, in a multi-target screening strategy. In essence, the method was as follows.
The assay utilized the stably transfected cell line Huh-7 luc/neo (hereafter referred to as Huh-Luc). This cell line harbored an RNA encoding a bicistronic expression construct comprising the wild type NS3-NS5B regions of HCV type 1b translated from an Internal Ribosome Entry Site (IRES) from encephalomyocarditis virus (EMCV), preceded by a reporter portion (FfL-luciferase), and a selectable marker portion (neo^R, neomycine phosphotransferase). The construct was bordered by 5′ and 3′ NTRs (non-translated regions) from HCV type 1b. Continued culture of the replicon cells in the presence of G418 (neo^R) was dependent on the replication of the HCV RNA. The stably transfected replicon cells that expressed HCV RNA, which replicated autonomously and to high levels, encoding inter alia luciferase, were used for screening the antiviral compounds.
The replicon cells were plated in 384 well plates in the presence of the test and control compounds which were added in various concentrations. Following an incubation of three days, HCV replication was measured by assaying luciferase activity (using standard luciferase assay substrates and reagents and a Perkin Elmer ViewLux™ ultraHTS microplate imager). […] The inhibitory activity of the compound on luciferase activity was monitored on the Huh-Luc cells, enabling a dose-response curve for each test compound.
(In general: A replicon is a self-replicating genome or part of one, used to study replication in cells.)

Assay [2] concerns the target T1, HCV NS5B polymerase (His-tagged, C-terminal 21 amino acid deleted NS5B, HC-J4) (Hepatitis C virus genotype 1b, UniProt O92972).
T1 construct: The cDNA encoding NS5B amino acid 1-570 (HC-J4, genotype 1b); His tag (His6, from pET-21b) (C); made in house; host or cells: E. coli BL21 (DE3)
Nature of the assay: NS5b polymerase assay (biochemical RdRp assay, 3H-GTP incorporation, SPA beads). Also noted: species or system HCV genotype 1b. The protocol:
as §1
The cDNA encoding NS5B amino acid 1-570 (HC-J4, genotype 1b, pCV-J4L6S, genebank accession number AF054247) was subcloned into the Nhe I and Xho I restriction sites of pET-21b. Expression of the subsequent His-tagged C-terminal 21 amino acid deleted NS5B was performed as follows:
Following transformation in BL21 (DE3) competent cells, bacterial cells were grown in 22 liter LB/Amp media until to reach OD600=0.4-0.6. Protein expression was induced by addition of IPTG 0.4 mM, supplemented with 10 μM MgCl2, and incubated for 14-16 hrs at 20° C. Cells were harvested, resuspended in lysis buffer (20 mM Tris-HCl pH=7.5, 0.3 M NaCl, 10% glycerol, 0.1% NP40, 4 mM MgCl2, 14 mM beta-mercaptoethanol, with tablet of EDTA-free protease cocktail inhibitors) and lysed by sonification. The cell lysate was cleared by high-speed centrifugation (20K×g for 30 min), captured on Ni-NTA beads for 70 min at 4° C., and eluted with 25 mM Hepes pH 7.5, 0.5 M NaCl, 10% glycerol, 14 mM BME, 500 mM imidazole. The eluent was dialysed against 25 mM Hepes pH 7.5, 10% glycerol, 50 mM NaCl, 14 mM BME, after which the protein was further purified by heparin chromatography using the same buffer with 1 M NaCl for elution. Fractions containing pure protein were collected, dialyzed against storage buffer 25 mM Hepes pH=7.5, 300 mM NaCl, 10% glycerol, 14 mM BME), and flash-freezed in liquid nitrogen.
Measurement of HCV NS5B polymerization activity was performed by evaluating the amount of radiolabeled GTP incorporated by the enzyme in a newly synthesized RNA using heteropolymeric RNA template/primer. The highthroughput RdRp assay was carried out in 384-well plates using 200 nM enzyme, 0.1 μCi of ^3H GTP, 5 mM MgCl2, 600 nM GTP, 30 nM PolyC, 300 nM 5′-biotinylated oligo(rG13)/poly(rC) in 20 mM Tris pH 7.5, 21 mM KCl, 2.5 mM DTT, 16.7 mM NaCl and 0.17 mM EDTA. Test compounds were dissolved in dimethylsulfoxide. The test compounds were added to the preformed polymerase-template complex, and incubated at room temperature (RT) for 15 min before the addition of NTPs. The 30-μl reaction was terminated after 2 h at 25° C. upon addition of 30-μl PVT-SPA beads (Amersham Biosciences RPNQ0009, 5 mg/ml in 0.5 M EDTA).

Where [3] appears, read: Huh-Luc cells, three days incubation, luciferase activity, read-out: Replicon Assay EC50.
Where [4] appears, read: 200 nM enzyme, 3H-GTP incorporation, 2 h at 25° C., read-out: NS5B Polymerase Assay IC50.
The mark [5] stands for this setting: Hepatitis C virus, Huh-7, 72 h, read-out: Replicon Assay EC50, Huh-Luc cells, three days incubation, luciferase activity.
The mark [6] stands for this setting: NS5B Polymerase Assay IC50, 200 nM enzyme, 3H-GTP incorporation, 2 h at 25° C.
Where [7] appears, read: Hepatitis C virus, Huh-7, 72 h, read-out: Replicon Assay EC50 (μM), Huh-Luc cells, incubation of three days, luciferase activity.
[8] abbreviates: NS5B Polymerase Assay IC50 (μM).
Where [9] appears, read: read-out: Replicon Assay EC50, Huh-Luc cells, three days incubation, luciferase activity.

Read-outs that look alike come from different tables or passages of the source. A value given as a limit tells only on which side of the number the result lay.

T1 sequence (O92972 2417-3000, looked up, stated change not applied): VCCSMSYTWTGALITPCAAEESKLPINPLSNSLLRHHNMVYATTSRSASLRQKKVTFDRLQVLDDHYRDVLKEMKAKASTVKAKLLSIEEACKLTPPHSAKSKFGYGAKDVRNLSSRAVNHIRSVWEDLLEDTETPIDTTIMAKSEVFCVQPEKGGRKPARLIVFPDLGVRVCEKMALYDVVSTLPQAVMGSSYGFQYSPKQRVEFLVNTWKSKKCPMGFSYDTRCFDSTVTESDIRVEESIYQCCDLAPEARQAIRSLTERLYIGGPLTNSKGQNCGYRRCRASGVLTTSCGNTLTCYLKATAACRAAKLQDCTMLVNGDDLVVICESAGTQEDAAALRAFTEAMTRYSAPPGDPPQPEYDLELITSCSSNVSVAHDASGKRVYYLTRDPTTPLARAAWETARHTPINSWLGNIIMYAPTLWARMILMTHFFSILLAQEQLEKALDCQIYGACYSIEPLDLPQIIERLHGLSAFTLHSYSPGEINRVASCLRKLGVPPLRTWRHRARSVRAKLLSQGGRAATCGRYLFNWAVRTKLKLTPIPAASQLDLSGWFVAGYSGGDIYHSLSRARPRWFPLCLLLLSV

The EC50 is the midpoint of the concentration-response curve. What is called IC50 is the concentration needed to halve the response being measured. For `O=C1CC(c2ccc(Cl)cc2)CC2=C1C(c1cccc([N+](=O)[O-])c1)N(C(=O)C(F)(F)F)c1ccccc1N2` (mixture of isomers) [compound 202], the EC50 in assay [1] (setting [3]) was found to be 9.68 µM. In addition, the IC50 in assay [2] (setting [4]) was > 33.3 µM.

On to `O=C1CC(c2ccc(Cl)cc2)CC2=C1C(c1cccc(Cl)c1)N(C(=O)c1ccccc1)c1ccccc1N2` (mixture of isomers) [compound 203], for which, in assay [1] (setting [3]), the EC50 was found to be 9.94 µM. The half-inhibitory concentration (IC50) in assay [2] (setting [4]) is > 33.3 µM.

`Cc1ccc(C2CC(=O)C3=C(C2)Nc2ccccc2N(C(=O)c2ccccc2)C3c2cccc(Cl)c2)cc1` (mixture of isomers) [compound 204]: the EC50 in assay [1] (setting [3]) is 9.96 µM. Besides, in assay [2] (setting [4]), the IC50 was > 33.3 µM.

On to `CCCCCC(=O)N1c2ccccc2NC2=C(C(=O)CC(c3ccc(OC)c(OC)c3)C2)C1c1cccc(Cl)c1` (mixture of isomers) [compound 205], for which, in assay [1] (setting [3]), the EC50 came to 9.96 µM. Further, the IC50 in assay [2] (setting [4]) is > 33.3 µM.

In the case of `COc1ccc(C2CC(=O)C3=C(C2)Nc2ccccc2N(C(=O)c2ccccc2)C3c2ccc(C)cc2)cc1` (mixture of isomers) [compound 206], in assay [1] (setting [3]), the half-maximal effective concentration (EC50) stood at 10.9 µM. In assay [2] (setting [4]), the IC50 was > 33.3 µM.

Consider `O=C1CC(c2ccc(Cl)cc2)CC2=C1C(c1cccc(Cl)c1)N(C(=O)C(F)(F)F)c1ccccc1N2` (mixture of isomers) [compound 208], for which the EC50 in assay [1] (setting [3]) came out at 11.1 µM. Further, the IC50 in assay [2] (setting [4]) was > 33.3 µM.

Turning to `Cc1ccc(C2CC(=O)C3=C(C2)Nc2ccccc2N(C(=O)c2ccccc2)C3c2ccccc2)cc1` (mixture of isomers) [compound 209], the EC50 in assay [1] (setting [3]) was 11.8 µM. The 50% inhibitory concentration (IC50) in assay [2] (setting [4]) is > 33.3 µM.

Consider `COc1ccc(C2CC(=O)C3=C(C2)Nc2ccccc2N(C(=O)C(F)(F)F)C3c2ccc(Cl)cc2)cc1` (mixture of isomers) [compound 210], for which the EC50 in assay [1] (setting [3]) was 12.1 µM. Moreover, in assay [2] (setting [4]), the IC50 was > 33.3 µM.

For `Cc1ccc(C2C3=C(CC(c4cccc([N+](=O)[O-])c4)CC3=O)Nc3ccccc3N2C(=O)c2ccccc2)cc1` (mixture of isomers) [compound 212], the EC50 in assay [1] (setting [3]) amounted to 23.9 µM. In addition, the IC50 in assay [2] (setting [4]) is > 42.7 µM.

Regarding `CCCCCC(=O)N1c2ccccc2NC2=C(C(=O)CC(c3ccc(Cl)cc3)C2)C1c1ccc(OC)cc1` (mixture of isomers) [compound 215], the EC50 in assay [1] (setting [3]) came to 14.1 µM. In addition, in assay [2] (setting [4]), the 50% inhibitory concentration (IC50) was > 33.3 µM.

For `CCOc1ccccc1C1C2=C(CC(c3ccc(OC)cc3)CC2=O)Nc2ccccc2N1C(=O)C(F)(F)F` (mixture of isomers) [compound 216], in assay [1] (setting [3]), the 50% effective concentration (EC50) stood at 25.3 µM. For the same molecule, the IC50 in assay [2] (setting [4]) was > 42.7 µM.

With `CCCCOc1ccc(C2CC(=O)C3=C(C2)Nc2ccccc2N(C(=O)CC)C3c2ccccc2)cc1` (mixture of isomers) [compound 217], in assay [1] (setting [3]), the EC50 was found to be 20.3 µM. The IC50 in assay [2] (setting [4]) is > 42.7 µM.

With `COc1ccc(C2CC(=O)C3=C(C2)Nc2ccccc2N(C(=O)c2ccccc2)C3c2ccc(Cl)cc2)cc1OC` (mixture of isomers) [compound 218], the EC50 in assay [1] (setting [3]) came out at 14.8 µM. The IC50 in assay [2] (setting [4]) was > 33.3 µM.

With `CC(=O)N1c2ccccc2NC2=C(C(=O)CC(c3ccccc3OCc3ccccc3)C2)C1C(Br)=Cc1ccccc1` (mixture of isomers) [compound 299], in assay [1] (setting [5]), the EC50 was found to be 2.36 µM. For the same molecule, the half-inhibitory concentration (IC50) in assay [2] (setting [6]) was > 133 µM.

Consider `O=C1CC(c2ccccc2OCc2ccccc2)CC2=C1C(C(Br)=Cc1ccccc1)Nc1ccccc1N2` (mixture of isomers) [compound 497], for which the EC50 in assay [1] (setting [7]) stood at 3.79 µM. The IC50 in assay [2] (setting [8]) is > 133 µM.

Regarding `O=C1CC(c2ccccc2OCc2ccccc2)CC2=C1C(C(Br)=Cc1ccccc1)Nc1ccccc1N2` (mixture of isomers) [compound 498], the EC50 in assay [1] (Huh-Luc cells, incubation of three days, luciferase activity, read-out: Replicon Assay EC50) came to 2.92 µM. Also, the IC50 in assay [2] (read-out: NS5B Polymerase Assay IC50) is > 133 µM.

As for `CC1(C)CC(=O)C2=C(C1)Nc1ccccc1N(C(=O)C(F)(F)F)C2/C=C/c1ccccc1` (racemic) [compound 244], the 50% effective concentration (EC50) in assay [1] (setting [5]) was 15.9 µM. The IC50 in assay [2] (setting [6]) is > 33.3 µM.

As to `CC1(C)CC(=O)C2=C(C1)Nc1ccccc1NC2/C(Br)=C/c1ccccc1` (racemic) [compound 500, 11-(1-Bromo-2-phenylvinyl)-3,3-dimethyl-2,3,4,5,10,11-hexahydro-dibenzo[b,e][1,4]diazepin-1-one], the EC50 in assay [1] (setting [7]) amounted to 26.5 µM. In addition, in assay [2] (setting [8]), the IC50 was > 133 µM.

Regarding `CC1(C)CC(=O)C2=C(C1)Nc1ccccc1NC2/C(Cl)=C/c1ccccc1` (racemic) [compound 506, 11-(1-Chloro-2-phenylvinyl)-3,3-dimethyl-2,3,4,5,10,11-hexahydro-dibenzo[b,e][1,4]diazepin-1-one], the EC50 in assay [1] (setting [7]) came out at 56.7 µM. In assay [2] (setting [8]), the half-maximal inhibitory concentration (IC50) is > 42.7 µM.

For the molecule `CC(=O)N1c2ccccc2NC2=C(C(=O)CC(C)(C)C2)C1c1ccc(Cl)cc1Cl` (single isomer, unassigned) [compound 35, 10-Acetyl-11-(2,4-dichlorophenyl)-2,3,4,5,10,11-hexahydro-3,3-dimethyl-1H-dibenzo[b,e][1,4]diazepin-1-one], the EC50 in assay [1] (setting [9]) amounted to 20.5 µM. In addition, the IC50 in assay [2] (setting [6]) was 1.28 µM.

Consider `CC(=O)N1c2ccccc2NC2=C(C(=O)CC(C)(C)C2)C1c1ccc(Cl)cc1Cl` (single isomer, unassigned) [compound 36, 10-Acetyl-11-(2,4-dichlorophenyl)-2,3,4,5,10,11-hexahydro-3,3-dimethyl-1H-dibenzo[b,e][1,4]diazepin-1-one], for which, in assay [1] (setting [5]), the EC50 came to 17 µM. The IC50 in assay [2] (setting [6]) is > 41.3 µM.

Turning to `CC(=O)N1c2ccccc2NC2=C(C(=O)CC(c3ccccc3OCc3ccccc3)C2)C1c1ccc(Cl)cc1Cl` (single isomer, unassigned) [compound 186, 10-Acetyl-3-(2-benzyloxyphenyl)-11-(2,4-dichlorophenyl)-2,3,4,5,10,11-hexahydro-dibenzo[b,e][1,4]diazepin-1-one], in assay [1] (setting [5]), the EC50 amounted to 2.03 µM. This molecule also had an IC50 in assay [2] (setting [6]) of 40.9 µM.

Turning to `CC(=O)N1c2ccccc2NC2=C(C(=O)CC(c3ccccc3OCc3ccccc3)C2)C1c1cccc(OCc2ccccc2)c1` (single isomer, unassigned) [compound 189], the EC50 in assay [1] (setting [9]) stood at 3.99 µM. Besides, the IC50 in assay [2] (setting [6]) is > 42.7 µM.

As for `CC(=O)N1c2ccccc2NC2=C(C(=O)CC(c3ccccc3OCc3ccccc3)C2)C1c1cccc(OCc2ccccc2)c1` (single isomer, unassigned) [compound 190], in assay [1] (setting [9]), the EC50 stood at 1.09 µM. Besides, the IC50 in assay [2] (read-out: NS5B Polymerase Assay IC50, 200 nM enzyme, 3H-GTP incorporation, 2 h at 25° C.) is > 42.7 µM.

Values taken from patent US20090221559A1 (priority 2005, published 2009).
